From ChEMBL document CHEMBL1201862, “PubChem BioAssay data set” (2004)
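Results reflect a 48-hour exposure of cells in 96-well plates to compound at five concentrations. Here, GI50 denotes the concentration required for 50% inhibition of growth.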 The source made the active and inactive calls. Cut-off read from the data, not from the text of the source: active = GI50 up to about 1.1 µM and inactive = higher. Residues, ends and D or L forms follow the SMILES beside them.

Experiments:
Assay in all cases: DTP human tumour cell line panel, 48 h
EKVX = system: EKVX
NCI-H522 = system: NCI-H522
UACC-62 = system: UACC-62
MOLT-4 = system: MOLT-4
SK-MEL-28 = system: SK-MEL-28
OVCAR-8 = system: OVCAR-8
U-251 = system: U-251
SNB-75 = system: SNB-75
DU-145 = system: DU-145
K562 = system: K562
HCT-15 = system: HCT-15
MDA-N = system: MDA-N
COLO 205 = system: COLO 205
HOP-62 = system: HOP-62
HT-29 = system: HT-29
CAKI-1 = system: CAKI-1
HOP-92 = system: HOP-92
BT-549 = system: BT-549
DLD-1 = system: DLD-1

| Compound | GI50 (EKVX) | GI50 (NCI-H522) | GI50 (UACC-62) | GI50 (MOLT-4) | GI50 (SK-MEL-28) | GI50 (OVCAR-8) | GI50 (U-251) | GI50 (SNB-75) | GI50 (DU-145) | GI50 (K562) | GI50 (HCT-15) [µM] | GI50 (MDA-N) | GI50 (COLO 205) | GI50 (HOP-62) | GI50 (HT-29) | GI50 (CAKI-1) | GI50 (HOP-92) | GI50 (BT-549) | GI50 (DLD-1) |
| --- | --- | --- | --- | --- | --- | --- | --- | --- | --- | --- | --- | --- | --- | --- | --- | --- | --- | --- | --- |
| CC1(C)CC2C=C(C=O)C3(C=O)CC3(C)C2C1 (configuration not stated) | 3.4 µM (inactive) | 1.09 µM (active) | 5.46 µM (inactive) | 0.191 µM (active) | 2.06 µM (inactive) | 1.95 µM (inactive) | 1.79 µM (inactive) | 1.89 µM (inactive) | 5.45 µM (inactive) | 1.1 µM (active) | 1.64 | 2.9 µM (inactive) | 1.89 µM (inactive) | 2.09 µM (inactive) | 1.41 µM (inactive) | 2.05 µM (inactive) | 1.95 µM (inactive) | 1.81 µM (inactive) | – |
| CC(=O)NC(CO)C(=O)NC(Cc1ccc(O)cc1)C(=O)NCC(N)=O (stereo not drawn) (Ac-Ser-Tyr-Gly-NH2; configuration not given here) | > 100 µM (inactive) | 74.5 µM (inactive) | > 100 µM (inactive) | > 100 µM (inactive) | > 100 µM (inactive) | > 100 µM (inactive) | > 100 µM (inactive) | > 100 µM (inactive) | > 100 µM (inactive) | > 100 µM (inactive) | > 100 | > 100 µM (inactive) | > 100 µM (inactive) | > 100 µM (inactive) | > 100 µM (inactive) | > 100 µM (inactive) | > 100 µM (inactive) | > 100 µM (inactive) | – |
| CC1(OCc2ccccc2)C(=O)N2C1NCC2(C)C (configuration not stated) | > 100 µM (inactive) | – | > 100 µM (inactive) | > 100 µM (inactive) | > 100 µM (inactive) | > 100 µM (inactive) | > 100 µM (inactive) | > 100 µM (inactive) | – | > 100 µM (inactive) | > 100 | – | > 100 µM (inactive) | > 100 µM (inactive) | > 100 µM (inactive) | – | – | – | > 100 µM (inactive) |
| O=Cc1[nH]c(=O)[nH]c(=O)c1CCl | > 100 µM (inactive) | > 100 µM (inactive) | > 96.4 µM (inactive) | > 96.8 µM (inactive) | > 100 µM (inactive) | > 82.4 µM (inactive) | > 61 µM (inactive) | 10.9 µM (inactive) | > 100 µM (inactive) | 50.8 µM (inactive) | > 65.8 | > 100 µM (inactive) | > 62.7 µM (inactive) | > 100 µM (inactive) | > 88.9 µM (inactive) | > 100 µM (inactive) | > 62.1 µM (inactive) | > 100 µM (inactive) | – |
